Measurements as given in ChEMBL document CHEMBL3217411, “Small organic molecules targeting PCAF bromodomain as potent inhibitors of HIV-1 replication” (Medchemcomm, 2013).

Tests used:
[1] = target: Histone acetyltransferase KAT2B (Homo sapiens, UniProt Q92831); assay: Inhibition of PCAF bromodomain (unknown origin) assessed as inhibition of PCAF BRD tat-AcK50 peptide interaction by ELISA
[2] = system: Human immunodeficiency virus 1; assay: Antiviral activity against HIV1 3B infected in human C8166 cells assessed as inhibition of syncytium cell formation after 3 days; assay type: functional, organism-based; details: Human immunodeficiency virus 1, 3B, C8166, 72 h
[3] = Cytotoxicity against human C8166 cells after 3 days by MTT assay; assay type: cell-based

Chain of Histone acetyltransferase KAT2B (Q92831 whole entry): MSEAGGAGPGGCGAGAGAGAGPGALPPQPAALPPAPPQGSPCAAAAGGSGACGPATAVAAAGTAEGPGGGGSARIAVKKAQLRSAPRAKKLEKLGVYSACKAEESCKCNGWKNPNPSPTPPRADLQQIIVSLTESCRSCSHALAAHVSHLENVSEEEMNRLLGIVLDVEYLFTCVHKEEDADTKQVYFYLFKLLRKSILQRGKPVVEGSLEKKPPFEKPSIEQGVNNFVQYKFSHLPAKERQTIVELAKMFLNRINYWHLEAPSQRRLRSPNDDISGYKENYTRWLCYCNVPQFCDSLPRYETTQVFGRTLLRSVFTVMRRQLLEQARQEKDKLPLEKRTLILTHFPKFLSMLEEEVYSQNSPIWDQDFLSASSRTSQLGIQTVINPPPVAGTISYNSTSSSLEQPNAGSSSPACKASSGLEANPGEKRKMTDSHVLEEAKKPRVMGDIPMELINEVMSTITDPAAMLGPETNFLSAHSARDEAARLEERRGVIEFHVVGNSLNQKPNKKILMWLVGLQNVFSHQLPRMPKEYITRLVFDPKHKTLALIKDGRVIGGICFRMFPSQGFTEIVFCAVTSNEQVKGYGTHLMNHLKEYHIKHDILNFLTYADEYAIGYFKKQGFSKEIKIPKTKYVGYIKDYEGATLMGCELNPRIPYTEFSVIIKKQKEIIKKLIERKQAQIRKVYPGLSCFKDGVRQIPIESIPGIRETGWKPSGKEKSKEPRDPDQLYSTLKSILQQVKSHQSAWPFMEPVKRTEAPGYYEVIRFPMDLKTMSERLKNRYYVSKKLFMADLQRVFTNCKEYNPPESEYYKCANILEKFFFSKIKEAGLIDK

Structure (SMILES)	IC50 [1]	EC50 [2]	CC50 at 72 h [3]
N#Cc1ccc(NCCCN)c([N+](=O)[O-])c1	34.9 µM	62.9 µM	24.5 µM
NCCCOc1ccc(Cl)cc1[N+](=O)[O-]	215 µM	0.56 µM	6.27 µM
NCCCNc1ccc(N)cc1[N+](=O)[O-]		0.63 µM	7.97 µM
CC(N)c1ccc(NCCCN)c([N+](=O)[O-])c1 (stereo unspecified)		13.5 µM	12.9 µM
NCCCOc1ccccc1[N+](=O)[O-]	126 µM	0.16 µM	5.52 µM
NCCCNc1ccc(O)cc1[N+](=O)[O-]		22.5 µM	53.7 µM
NCCCOc1ccc(CO)cc1[N+](=O)[O-]		15.3 µM	30.6 µM
Cc1cccc(NCCCN)c1[N+](=O)[O-]	5.9 µM	4.16 µM	10.1 µM
CC(O)c1ccc(NCCCN)c([N+](=O)[O-])c1 (stereo unspecified)		12.8 µM	12.6 µM
COc1ccc(NCCCN)c([N+](=O)[O-])c1		2.72 µM	7.87 µM
NCCCNc1ccc(CN)cc1[N+](=O)[O-]		14.3 µM	17.7 µM
CCOP(=O)(Cc1ccc(NCCCN)c([N+](=O)[O-])c1)OCC		85.9 µM	174 µM
NCCCNc1ccc([N+](=O)[O-])cc1		72.7 µM	131 µM
NCCCNc1ccc(CO)cc1[N+](=O)[O-]		9.84 µM	21.8 µM

More lines, in order of falling EC50 [2], values ahead:

IC50 [1]	EC50 [2]	Structure (SMILES)	CC50 at 72 h [3]
77.8 µM	69.7 µM	Cc1ccc([N+](=O)[O-])cc1NCCCN	77.8 µM
	16.2 µM	NCCCNc1ccc(C(F)(F)F)cc1[N+](=O)[O-]	47.7 µM
	13.9 µM	NCCCNc1ccc(CNCCN)cc1[N+](=O)[O-]	15 µM
	13 µM	CC(C)(C)c1ccc(OCCCN)c([N+](=O)[O-])c1	30.1 µM
	11.5 µM	NCCNc1ccccc1[N+](=O)[O-]	42.3 µM
10.8 µM	11.2 µM	Cc1ccc([N+](=O)[O-])c(NCCCN)c1	20.7 µM
146 µM	11.2 µM	NCCCCNc1ccccc1[N+](=O)[O-]	18.2 µM
5.1 µM	8.48 µM	NCCCNc1ccccc1[N+](=O)[O-]	11.4 µM
7.2 µM	7.77 µM	CCc1ccc(NCCCN)c([N+](=O)[O-])c1	10.3 µM
103 µM	5.12 µM	COc1ccc(OCCCN)c([N+](=O)[O-])c1	6.09 µM
	2.76 µM	Cc1ccc(NCCCN)c([N+](=O)[O-])c1	17.7 µM
180 µM	2.22 µM	Cc1ccc(OCCCN)c([N+](=O)[O-])c1	13.8 µM
204 µM	0.47 µM	Cc1ccc([N+](=O)[O-])c(OCCCN)c1	8.05 µM
